Tests used:
C. glabrata [1] = test: Disk diffusion method, C. glabrata strains; assay type: cell-based
Method: (§1) A total of eighteen strains belonging to Candida spp. (15 C. albicans, 2 C. glabrata and 1 C. lusitaniae) derived from a collection of vaginal strains isolated in CHROMAgar Candida (BD Italia SpA, Milan, Italy) were grown on Potato Dextrose Agar (Oxoid Thermofisher SpA, Milan, Italy) at 35° C. for 24 hours.
Colonies were re-suspended in sterile saline at a density corresponding to #0.5 McFarland (opacity standard). #0.5 McF correspond to 1.4×10^6 colony forming units (CFU)/ml for C. albicans, 4.3×10^6 CFU/ml for C. glabrata and 3×10^6 CFU/ml for C. lusitaniae [Guinea J. et al., Rapid antifungal susceptibility determination for yeast isolates by use of Etest performed directly on blood samples from patients with fungemia, J Clin Microbiol. 2010 June, 48(6): 2205-12]. Then, the sensitivity test vs the two oils has been performed. The disk diffusion method was carried out as follows: for each tested strain, 4 plates of Potato Dextrose Agar (PDA) were seeded in 3 directions to produce a confluent growth, by sterile swab soaked in the cell suspension. Sorbent paper disks (Oxoid Thermofisher SpA, Milan, Italy) 6.0 mm diameter were placed on the agar surface and added with 10 μl of each essential oil. Disks soaked with 10 μg amphotericin B were used as positive control. Also disks of chlortrimazole (from 10 μg to 40 μg) were used, but the inhibition rings could not be clearly read due to the formation of a re-growth ring. Disks soaked with 10 μl pure dimethylsulphoxide (DMSO, Sigma-Aldrich, St. Louis, MO, USA) were used as negative control. The plates were incubated at 35° C. for 24 hours. All the experiments were carried out in duplicate. The inhibiting effect of the oils were considered to be effective when the inhibition ring was equal or greater than that caused by amphotericin B. For amphotericin B, an inhibition zone (IZ)≥15 mm was considered as “sensitivity”, from 10 to 14 mm as “intermediate sensitivity” and <10 mm as “resistance” [Kauser et al., Agreement of Direct Antifungal Susceptibility Testing from Positive Blood Culture Bottles with Conventional Method for Candida Species, J Clin Microbiol. 2016 February, 54(2):343-34].

C. albicans = test: Microdilution method MIC/MFC, C. albicans strains; assay type: cell-based
Method: as §1
(§2) The antifungal activity of amphotericin B and of cinnamaldheyde and eugenol were tested with the microdilution method as reported by Bona et al. [Bona et al., Sensitivity of Candida albicans to essential oils: are they an alternative to antifungal agents? J Appl Microbiol. 2016 December, 121(6): 1530-1545] with small changes. All the 18 Candida spp strains were tested. For each isolated, the colonies deriving from cultures (24 hours) in PDA were diluted in saline up to a concentration of 2×10^3 CFU/ml (so obtaining a final concentration of 10 3CGU/ml). Cinnamaldehyde and eugenol were dissolved in DMSO (80% oil, 20% DMSO), then diluted in Sabouraud broth up to a concentration of 8% v/v (so obtaining a final concentration of 4% v/v). Then, in a 96-well microtiter plate ½ serial dilution of amphotericin B (range 32-0.032 μg/ml, for a final range of 16-0.016 μg/ml) and of the essential oils (range 8-0.004% v/v, for a final range of 4-0.002% v/v) were carried out. Each well was then injected with 100 μl of cell suspension. The negative control contained DMSO diluted in Sabouraud broth (at 2% v/v, for a final concentration of 1% v/v). […] Each experiment was carried out in duplicate. The Minimum Inhibitory Concentration (MIC) was determined as the concentration of the oils in the first well which is not cloudy. The Minimum Fungicidal Concentration (MFC) was determined as the lowest concentration of the oils, with the agar culture showing the complete absence of fungal growth. The determination of the amphotericin B MIC was carried out also according to the EUCAST guidelines (cutoff 1 μg/ml) [https://eucast.org/astoffungi/clinicalbreakpointsforantifungals], all the results being consistent.

C. glabrata [2] = test: Microdilution method MIC/MFC, C. glabrata strains; assay type: cell-based
Method: as §1, §2

C. lusitaniae = test: Microdilution method MIC/MFC, C. lusitaniae strain; assay type: cell-based; details: C. lusitaniae 1
Method: as §1, §2

[3] = test system: L. acidophilus strain La-14; test: Disk diffusion vs L. acidophilus; assay type: cell-based, Lactobacillus acidophilus; details: 10 μl oil per disk; MRS agar, 37° C. 24 hours, anaerobiosis
Method: The antibacterial activity of cinnamaldheyde and eugenol vs L. acidophilus was studied by using the disk diffusion method (reading scheme as reported in FIG. 1) and the microdilution method (reading scheme as reported in FIG. 2). A L. acidophilus strain named La-14 (Danisco SpA, Milan, Italy) was tested.
Colonies deriving from a 24-hour culture in DeManRogosaSharpe agar (MRS, OXOID SpA, Milan, Italy) were suspended in saline up to a concentration corresponding to #0.5 McFarland. A total of 3 plates of MRS agar were seeded in 3 directions to produce a confluent growth, by sterile swab soaked in the bacterial suspension. Sorbent paper disks 6.0 mm diameter were placed on each plate and soaked with 10 μl of each oil. Disks soaked with […] pure DMSO were used as negative control. The plates were incubated at 37° C. for 24 hours in anaerobiosis (anaerogen gaspack, OXOID SpA, Milan, Italy). The experiment was carried out in duplicate.

SMILES | Diameters of the inhibition rings (including 6.0 mm of the disk) (C. glabrata [1]; C. glabrata 1) | Diameters of the inhibition rings (including 6.0 mm of the disk) (C. glabrata [1]; C. glabrata 2) | MFC (C. albicans; C. albicans 1) | MIC (C. albicans; C. albicans 1) | MFC (C. albicans; C. albicans 2) | MIC (C. albicans; C. albicans 2) | MFC (C. albicans; C. albicans 3) | MIC (C. albicans; C. albicans 3) | MFC (C. albicans; C. albicans 4) | MIC (C. albicans; C. albicans 4) | MFC (C. albicans; C. albicans 5) | MIC (C. albicans; C. albicans 5) | MFC (C. albicans; C. albicans 6) | MIC (C. albicans; C. albicans 6) | MFC (C. albicans; C. albicans 7) | MIC (C. albicans; C. albicans 7) | MFC (C. albicans; C. albicans 8) | MIC (C. albicans; C. albicans 8) | MFC (C. albicans; C. albicans 9) | MIC (C. albicans; C. albicans 9) | other results
C=CCc1ccc(O)c(OC)c1 [Eugenol, eugenol] | 35.0 mm | 30.5 mm | 0.032 % v/v | 0.032 % v/v | 0.032 % v/v | 0.032 % v/v | 0.032 % v/v | 0.016 % v/v | 0.064 % v/v | 0.064 % v/v | 0.032 % v/v | 0.008 % v/v | 0.032 % v/v | 0.032 % v/v | 0.064 % v/v | 0.032 % v/v | 0.032 % v/v | 0.032 % v/v | 0.125 % v/v | 0.125 % v/v | MFC (C. albicans; C. albicans 10): 0.016 % v/v; MIC (C. albicans; C. albicans 10): 0.016 % v/v; MFC (C. albicans; C. albicans 11): 0.125 % v/v; MIC (C. albicans; C. albicans 11): 0.064 % v/v; MFC (C. albicans; C. albicans 12): 0.064 % v/v; MIC (C. albicans; C. albicans 12): 0.016 % v/v; MFC (C. albicans; C. albicans 13): 0.125 % v/v; MIC (C. albicans; C. albicans 13): 0.064 % v/v; MFC (C. albicans; C. albicans 14): 0.125 % v/v; MIC (C. albicans; C. albicans 14): 0.032 % v/v; MFC (C. albicans; C. albicans 15): 0.064 % v/v; MIC (C. albicans; C. albicans 15): 0.032 % v/v; MFC (C. glabrata [2]; C. glabrata 1): 0.032 % v/v; MIC (C. glabrata [2]; C. glabrata 1): 0.032 % v/v; MFC (C. glabrata [2]; C. glabrata 2): 0.125 % v/v; MIC (C. glabrata [2]; C. glabrata 2): 0.125 % v/v; MFC (C. lusitaniae): 0.064 % v/v; MIC (C. lusitaniae): 0.032 % v/v; inhibition ring diameter [3]: did not produced any inhibition ring
O=CC=Cc1ccccc1 [Cinnamaldheyde, cinnamaldehyde] | 55.0 mm | 55.0 mm | 0.008 % v/v | 0.004 % v/v | 0.008 % v/v | 0.004 % v/v | 0.004 % v/v | 0.004 % v/v | 0.008 % v/v | ≤0.002 % v/v | 0.004 % v/v | 0.004 % v/v | 0.008 % v/v | 0.004 % v/v | 0.008 % v/v | ≤0.002 % v/v | 0.008 % v/v | 0.004 % v/v | 0.064 % v/v | 0.016 % v/v | MFC (C. albicans; C. albicans 10): ≤0.002 % v/v; MIC (C. albicans; C. albicans 10): ≤0.002 % v/v; MFC (C. albicans; C. albicans 11): ≤0.002 % v/v; MIC (C. albicans; C. albicans 11): ≤0.002 % v/v; MFC (C. albicans; C. albicans 12): ≤0.002 % v/v; MIC (C. albicans; C. albicans 12): ≤0.002 % v/v; MFC (C. albicans; C. albicans 13): 0.016 % v/v; MIC (C. albicans; C. albicans 13): 0.008 % v/v; MFC (C. albicans; C. albicans 14): 0.016 % v/v; MIC (C. albicans; C. albicans 14): 0.004 % v/v; MFC (C. albicans; C. albicans 15): 0.008 % v/v; MIC (C. albicans; C. albicans 15): 0.004 % v/v; MFC (C. glabrata [2]; C. glabrata 1): 0.008 % v/v; MIC (C. glabrata [2]; C. glabrata 1): 0.004 % v/v; MFC (C. glabrata [2]; C. glabrata 2): 0.016 % v/v; MIC (C. glabrata [2]; C. glabrata 2): 0.016 % v/v; MFC (C. lusitaniae): ≤0.002 % v/v; MIC (C. lusitaniae): ≤0.002 % v/v; inhibition ring diameter [3]: 10 mm

From US20240197650A1, “Combination of Cinnamaldheyde and Eugenol with Antimycotic Activity” (priority 2021, published 2024)
